From ChEMBL document CHEMBL2429713, “Toward drugs for protease-activated receptor 2 (PAR2)” (J Med Chem, 2013)
Blank lines part the entries; values can stand above or below the compound they belong to. *1 amine or outer side, *2 acyl side, *3 side chain or, on linkers, in order; H or OH if unused. Where a SMILES comes first, the peptide text is derived from it. [ ]: non-standard residue; d: D form. The star is where a group is joined. X1 = CCCCCCCCCCCCCCCC(=O)OCCOCCOCCNCCC[C@H](N[*:1])C(=O)[*:2]; Phe(4-NO2) = N[C@@H](Cc1ccc([N+](=O)[O-])cc1)C(=O)O; 4Thiazolecarbonyl(2-NH2) = Nc1nc(C(=O)*)cs1; Palmitoyl = CCCCCCCCCCCCCCCC(=O)*; Orn = NCCC[C@H](N)C(=O)O; 2Furoyl = O=C(c1ccco1)*

Legend:
[1] = target: T1, Proteinase-activated receptor 2 (Homo sapiens, UniProt P55085); assay: Antagonist activity at PAR2 in human HT-29 cells assessed as inhibition of agonist-induced calcium mobilization; format: functional, cell-based
T1 sequence (P55085 whole entry): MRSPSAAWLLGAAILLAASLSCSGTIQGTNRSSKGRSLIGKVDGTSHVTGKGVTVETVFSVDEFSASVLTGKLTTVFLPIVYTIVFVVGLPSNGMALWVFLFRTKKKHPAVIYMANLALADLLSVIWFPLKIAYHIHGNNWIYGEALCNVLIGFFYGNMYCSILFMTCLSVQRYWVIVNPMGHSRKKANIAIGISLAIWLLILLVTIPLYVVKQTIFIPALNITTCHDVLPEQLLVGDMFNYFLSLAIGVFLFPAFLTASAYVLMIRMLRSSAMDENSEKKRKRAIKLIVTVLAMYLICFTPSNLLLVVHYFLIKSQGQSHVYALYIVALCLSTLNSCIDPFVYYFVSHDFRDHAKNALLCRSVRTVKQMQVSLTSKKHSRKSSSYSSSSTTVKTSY

[2] = target: T1, Proteinase-activated receptor 2; assay: Antagonist activity at PAR2 in human HCT15 cells assessed as inhibition of SLIGKV-NH2-induced intracellular calcium release; format: functional, cell-based, HCT-15
[3] = target: T1, Proteinase-activated receptor 2; assay: Antagonist activity at PAR2 in human HT-29 cells assessed as inhibition of trypsin-induced intracellular calcium release; format: functional, cell-based
[4] = target: T1, Proteinase-activated receptor 2; assay: Antagonist activity at PAR2 in human HT-29 cells assessed as inhibition of 2f-LIGRLO-NH2-induced intracellular calcium release; format: functional, cell-based
[5] = target: T1, Proteinase-activated receptor 2; assay: Displacement of [3H]2-furoyl-LIGRL-NH2 from human PAR2 expressed in human NCTC-2544 cells by scintillation counting analysis; format: cell-based
[6] = target: T1, Proteinase-activated receptor 2; assay: Antagonist activity at human PAR2 expressed in human NCTC-2544 cells assessed as inhibition of SLIGKV-NH2-induced NFkappaB activation preincubated for 15 to 30 mins followed by SLIGKV-NH2 addition measured after 6 hrs by luciferase reporter gene assay; format: cell-based
[7] = target: T1, Proteinase-activated receptor 2; assay: Agonist activity at human PAR2 expressed in HEK293T cells assessed as stimulation of phosphatidylinositol hydrolysis after 45 mins by scintillation counting analysis; format: functional, cell-based, HEK-293T
[8] = target: T1, Proteinase-activated receptor 2; assay: Agonist activity at human PAR2 expressed in HEK293T cells assessed as increase in intracellular calcium level by bioluminescence assay; format: functional, cell-based, HEK-293T
[9] = target: T1, Proteinase-activated receptor 2; assay: Agonist activity at PAR2 in human HT-29 cells assessed as increase in intracellular calcium release; format: functional, cell-based
[10] = target: T1, Proteinase-activated receptor 2; assay: Displacement of [3H]-2-furoyl-LIGRL-NH2 from human PAR2 expressed in human NCTC-2544 cells after 60 mins by scintillation counting analysis; format: cell-based
[11] = target: T2, Proteinase-activated receptor 2 (Rattus norvegicus, UniProt Q63645); assay: Antagonist activity at rat PAR2 expressed in rat KNRK cells assessed as inhibition of trypsin-induced receptor activation; format: cell-based
T2 sequence (Q63645 whole entry): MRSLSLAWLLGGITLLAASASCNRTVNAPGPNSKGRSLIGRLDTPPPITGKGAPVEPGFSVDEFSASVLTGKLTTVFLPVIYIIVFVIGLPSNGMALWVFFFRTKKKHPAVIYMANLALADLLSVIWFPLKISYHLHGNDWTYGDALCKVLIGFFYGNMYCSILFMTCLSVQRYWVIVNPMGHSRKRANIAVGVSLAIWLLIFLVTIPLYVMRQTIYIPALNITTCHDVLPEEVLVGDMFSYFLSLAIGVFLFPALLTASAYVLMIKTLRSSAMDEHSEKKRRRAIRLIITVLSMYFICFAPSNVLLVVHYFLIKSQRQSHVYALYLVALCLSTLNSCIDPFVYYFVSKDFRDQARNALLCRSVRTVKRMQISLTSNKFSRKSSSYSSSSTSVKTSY

[12] = target: T1, Proteinase-activated receptor 2; assay: Antagonist activity at PAR2 in human HaCaT cells assessed as inhibition of SLIGKV-NH2-induced intracellular calcium release; format: functional, cell-based
[13] = target: T1, Proteinase-activated receptor 2; assay: Agonist activity at PAR2 (unknown origin) by cell-based assay
[14] = target: Proteinase-activated receptor 2 (Homo sapiens) (UniProt P55085); assay: Antagonist activity at PAR2 in human SW620 cells assessed as inhibition of SLIGRL-NH2-induced intracellular calcium release at 6 uM relative to control; format: functional, cell-based; design: scale not given: the % may be the effect or the level left; conditions: SW-620
[15] = target: T3, Proteinase-activated receptor 1 (Homo sapiens, UniProt P25116); assay: Agonist activity at human PAR1 expressed in African green monkey COS7 cells assessed as stimulation of inositol triphosphate production; format: functional, cell-based, COS-7
T3 sequence (P25116 whole entry): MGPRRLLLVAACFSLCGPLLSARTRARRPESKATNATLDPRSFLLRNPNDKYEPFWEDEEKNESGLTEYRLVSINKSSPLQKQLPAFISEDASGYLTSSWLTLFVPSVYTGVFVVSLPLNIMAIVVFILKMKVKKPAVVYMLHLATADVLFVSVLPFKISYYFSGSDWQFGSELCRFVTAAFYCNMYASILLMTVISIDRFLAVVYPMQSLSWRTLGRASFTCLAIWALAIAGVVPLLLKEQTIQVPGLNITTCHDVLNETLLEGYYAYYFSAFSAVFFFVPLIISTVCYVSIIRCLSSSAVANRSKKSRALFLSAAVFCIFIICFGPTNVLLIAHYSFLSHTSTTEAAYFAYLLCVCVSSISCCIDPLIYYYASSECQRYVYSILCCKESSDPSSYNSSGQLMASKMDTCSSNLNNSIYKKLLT

[16] = target: T1, Proteinase-activated receptor 2; assay: Agonist activity at PAR2 in human 16HBE14o- cells assessed as increase in MAPK level; format: cell-based
[17] = target: T1, Proteinase-activated receptor 2; assay: Agonist activity at PAR2 in human 16HBE14o- cells assessed as increase in intracellular calcium level; format: functional, cell-based
[18] = target: T1, Proteinase-activated receptor 2; assay: Antagonist activity at human PAR2 expressed in human A549 cells assessed as inhibition of 2f-LIGRLO-NH2-induced NFkappaB activation by luciferase reporter gene assay; format: cell-based
[19] = target: T1, Proteinase-activated receptor 2; assay: Antagonist activity at human PAR2 expressed in human A549 cells coexpressing TACR1 assessed as inhibition of substance P-induced IL-8 production by ELISA; format: cell-based

Compound: CC[C@H](C)[C@H](NC(=O)[C@H](CC1CCCCC1)NC(=O)c1ccno1)C(=O)N1CCC2(CCc3ccccc32)CC1
IC50 [1]: 2 µM

Compound: CC[C@H](C)[C@H](NC(=O)[C@H](CC1CCCCC1)NC(=O)c1ccno1)C(=O)N1CCC2(C=Cc3ccccc32)CC1
IC50 [1]: 1 µM

Compound: COc1ccc(Br)c(C(=O)Nn2c(-c3ccc(F)cc3)nc3ccccc3c2=O)c1
IC50 [2]: 34 µM

Compound: Cc1cccc(Cn2c(C)nc3cc(C(=O)N4CCCCC4)ccc32)c1
IC50 [2]: 243 µM

Compound: C/C(=N\NC(=O)[C@@H]1C(=O)NC[C@H]1c1ccccc1)c1cccc(Br)c1
EC50 [7]: 0.03 µM
EC50 [8]: 0.03 µM

Compound: CC[C@H](C)[C@H](NC(=O)[C@H](CC(C)C)NC(=O)[C@@H](N)CO)C(=O)NCC(=O)N[C@@H](CCCNC(=N)N)C(=O)N[C@@H](CC(C)C)C(N)=O (H-SLIGRL-NH2)
EC50 [13]: 5 µM

Compound: CCCCCCCCCCCCCCCC(=O)NCC(=O)N[C@@H](CC(=O)O)C(=O)N[C@@H](CCC(=O)O)C(=O)N[C@@H](CC(N)=O)C(=O)N[C@@H](CO)C(=O)N[C@@H](CCC(=O)O)C(=O)N[C@@H](CCCCN)C(=O)N[C@@H](CCCCN)C(=O)N[C@@H](CCCNC(=N)N)C(=O)N[C@@H](CCCCN)C(=O)N[C@@H](CCC(N)=O)C(=O)N[C@@H](C)C(=O)N[C@H](C(=O)N[C@@H](CCCCN)C(=O)O)[C@@H](C)CC (Palmitoyl-GDENSEKKRKQAIK-OH)
Activity [14]: 53%

Compound: CC(C)[C@]12O[C@H]1[C@@H]1O[C@]13[C@]1(O[C@H]1C[C@H]1C4=C(CC[C@@]13C)C(=O)OC4)[C@@H]2O [TRIPTOLIDE]
IC50 [18]: 0.014 µM
IC50 [19]: 0.023 µM

The remaining lines, values ahead:

IC50 [3]: 1.9 µM
IC50 [4]: 0.4 µM
Compound: CC[C@H](C)[C@H](NC(=O)[C@H](CC1CCCCC1)NC(=O)c1ccno1)C(=O)NCc1ccccc1OC

Ki [5]: 0.6 µM
IC50 [6]: 1.1 µM
Compound: NCCCC[C@H](NC(=O)CNC(=O)Nc1ccc2c(c1)c(CN1CCCC1)cn2Cc1c(Cl)cccc1Cl)C(=O)N[C@@H](Cc1ccccc1)C(=O)NC(c1ccccc1)c1ccccc1

EC50 [9]: 0.2 µM
IC50 [10]: 0.1 µM
Compound: CC[C@H](C)[C@H](NC(=O)[C@H](CC(C)C)NC(=O)c1ccco1)C(=O)NCC(=O)N[C@@H](CCCN=C(N)N)C(=O)N[C@@H](CC(C)C)C(=O)N[C@@H](CCCN)C(N)=O (2Furoyl-LIGRL[Orn]-NH2)

EC50 [9]: 0.2 µM
Compound: CC[C@H](C)[C@H](NC(=O)[C@H](Cc1ccc([N+](=O)[O-])cc1)NC(=O)[C@H](CCCN=C(N)N)NC(=O)CNC(=O)[C@@H](NC(=O)[C@H](CC(C)C)NC(=O)c1ccco1)[C@@H](C)CC)C(N)=O (2Furoyl-LIGR[Phe(4-NO2)]I-NH2)

IC50 [11]: 50 µM
Compound: CC(C)C[C@H](NC(=O)[C@H](CC(C)C)NC(=O)[C@H](CO)NC(=O)[C@@H](N)Cc1ccccc1)C(=O)N[C@@H](CCCNC(=N)N)C(=O)N[C@@H](Cc1ccc(O)cc1)C(N)=O (H-FSLLRY-NH2)

IC50 [11]: 50 µM
Compound: CC[C@H](C)[C@H](NC(=O)[C@H](CO)NC(=O)[C@@H](N)CC(C)C)C(=O)NCC(=O)N[C@@H](CCCNC(=N)N)C(=O)N[C@@H](CC(C)C)C(N)=O (H-LSIGRL-NH2)

IC50 [12]: 700 µM
Compound: CC(C)C[C@H](NC(=O)[C@H](CC(C)C)NC(=O)[C@H](CO)NC(=O)[C@H](Cc1ccccc1)NC(=O)[C@H](CCCNC(=N)N)NC(=O)[C@@H](N)CCCNC(=N)N)C(=O)N[C@@H](CCCNC(=N)N)C(=O)N[C@@H](Cc1ccc(O)cc1)C(N)=O (H-RRFSLLRY-NH2)

EC50 [15]: 0.18 µM
Compound: CCCCCCCCCCCCCCCC(=O)N[C@@H](CCCN=C(N)N)C(=O)N[C@@H](CS)C(=O)N[C@@H](CC(C)C)C(=O)N[C@@H](CO)C(=O)N[C@@H](CO)C(=O)N[C@@H](CO)C(=O)N[C@@H](C)C(=O)N[C@H](C(=O)N[C@@H](C)C(=O)N[C@@H](CC(N)=O)C(=O)N[C@@H](CCCN=C(N)N)C(=O)N[C@@H](CO)C(=O)N[C@@H](CCCCN)C(=O)N[C@@H](CCCCN)C(=O)N[C@@H](CO)C(=O)N[C@@H](CCCN=C(N)N)C(=O)N[C@@H](CC(C)C)C(=O)N[C@@H](Cc1ccccc1)C(=O)O)C(C)C (Palmitoyl-RCLSSSAVANRSKKSRLF-OH)

EC50 [16]: 0.01 µM
EC50 [17]: 0.004 µM
Compound: CCCCCCCCCCCCCCCC(=O)OCCOCCOCCNCCC[C@H](NC(=O)[C@H](CC(C)C)NC(=O)[C@H](CCCNC(=N)N)NC(=O)CNC(=O)[C@@H](NC(=O)[C@H](CC(C)C)NC(=O)c1csc(N)n1)[C@@H](C)CC)C(N)=O ({4Thiazolecarbonyl(2-NH2)}-LIGRL[X1]-NH2)
